Data as given in PMC8473641, “Dual blocking of PI3K and mTOR signaling by DHW‐221, a novel benzimidazole derivative, exerts antitumor activity in human non‐small cell lung cancer” (Clinical and Translational Medicine, 2021).
Read-outs that look alike come from different tables or passages of the source. One block for each molecule: values may come before it.

Columns and labels:
[1] = tested on: NCI-H292; assay: SRB assay NCI-H292; assay type: cell-based; conditions: Homo sapiens, mean±SD
Experimental: (§1) To investigate the effect of DHW‐221 in vitro, SRB assay was performed. […] Additionally, the long‐term efficacy of DHW‐221 was evaluated and confirmed a better antiproliferation role than NVP‐BEZ235 (Figure 2C–E). Figure 2F investigates the concentration‐dependently inhibition of DHW‐221 on protein synthesis in cells. HCC827 xenograft models in both subcutaneous and orthotopic were used to further evaluate its antitumor potency in vivo. […] Moreover, DHW‐221 treatment could ameliorate the burden of orthotopic carcinoma to nude mice (Figure 2O, P).
(§2) FIGURE 2 DHW‐221 inhibits the viability of NSCLC cells both in vitro and in vivo. (A) The structure of compound DHW‐221. (B) The viability of HCC827, NCI‐H292, NCI‐H1993, and A549 cells treated with various concentrations of DHW‐221 at 24, 48, and 72 h was determined by sulforhodamine B (SRB) assay. (C–E) The growth‐inhibitory effect of DHW‐221 on HCC827 and NCI‐H1993 cells was measured using a colony formation assay (C), a lactate dehydrogenase (LDH) assay (D), and a tumor sphere formation assay (E). […] (F) OPP‐labeled protein content was detected by luciferase plate. (G) Tumor‐burdened nude mice and resected tumor samples from subcutaneous xenografts after 21 days (n = 6). (H) Subcutaneous tumor volume was measured daily with a caliper. (I) Mean tumor weight was measured to subcutaneous xenografts at the end of the experiment. (J) Subcutaneous xenografts nude mice were weighed daily on an electronic scale. (K) The index of each main organ of subcutaneous xenografts nude mice. (L) Liver and kidney function indexes subcutaneous xenografts nude mice were evaluated to predict drug toxicity. (M) Hematoxylin and eosin (H&E) staining of the liver, spleen, and kidney from subcutaneous xenografts nude mice; scale bar = 100 µm. (N) Photographs of NSCLC orthotopic tumor samples, n = 6. (O) Orthotopic xenografts nude mice were weighed daily on an electronic scale. (P) The index of lung organ was measured from orthotopic xenografts nude mice. Mean ± SD; *p < 0.05, **p < 0.01, ***p < 0.001 versus the control (model). […]

[2] = tested on: Notch2 and Notch3; assay: Western blot of Notch pathway proteins; assay type: cell-based, human; conditions: HCC827 and NCI-H1993 cells, 48 h
Experimental: The PI3K signaling pathway is interrelated with Notch. However, the regulatory relationship between Notch and PI3K/AKT/mTOR pathways is still unclear. Next, we investigated the effects of DHW-221 on Notch and its downstream critical target Hes-1.
Figure S2. DHW-221 blocks the notch pathway. HCC827 and NCI-H1993 cells were treated with DHW-221 or NVP-BEZ235 for 48 h following which western blotting was performed on the cell lysates. Mean ± SD; **p < 0.01, ***p < 0.001 vs. the control. One-way analysis of variance followed by Tukey’s post hoc multiple-comparisons test.

[3] = tested on: p-mTOR; assay: Western blot of p-AKT and p-mTOR in PI3K knocked down HCC827 cells; assay type: cell-based, human
Excerpt: First, we identified potential targets of DHW‐221. […] For mTOR, DHW‐221 precisely overlapped with it and formed two more hydrogen bonds (Val2240 and Thr2245) than NVP‐BEZ235 (Figure 1A). […] Additionally, we knocked down PI3K in HCC827 cells (Figure 1C) and compared how DHW‐221, NVP‐BEZ235, and wortmannin (a PI3K inhibitor) treatments affected AKT and mTOR protein phosphorylation levels. […] Finally, western blot and immunofluorescence analysis confirmed the effect of DHW‐221 on the expression of PI3K/AKT/mTOR pathway‐related proteins both in vitro and in vivo (Figure 1E–G). […] The effects of DHW‐221 on notch pathway are provided in Result S1.
FIGURE 1 DHW‐221 is a PI3K/mTOR dual‐target inhibitor and inhibits the PI3K/AKT/mTOR signaling pathway. (A) Predicted binding modes for DHW‐221 (blue stick) with PI3Kα (PDB code: 4JPS) and mTOR (PDB code: 4JT6). Hydrogen bonds are shown as green dashed lines. Key residues for DHW‐221 and BEZ235 interaction are highlighted. (B) A cellular thermal shift assay (CETSA) and an isothermal dose–response fingerprinting (ITDRF)cetsa were used to evaluate the thermal stability of DHW‐221 bound to PI3Kα/β or mTOR. (C, D) The expression of PI3K, p‐AKT, and p‐mTOR in transfected NSCLC cells was assessed by western blot. […]

[4] = tested on: A549; assay: SRB assay A549; assay type: cell-based; conditions: Homo sapiens, mean±SD
Experimental: as §1, §2

[5] = tested on: NCI-H1993; assay: SRB assay NCI-H1993; assay type: cell-based; conditions: Homo sapiens, mean±SD
Experimental: as §1, §2

[6] = tested on: HCC827 xenograft; assay: HCC827 xenograft models (subcutaneous and orthotopic) in nude mice; assay type: in vivo
Experimental: as §1, §2

[7] = tested on: HCC827; assay: SRB assay HCC827; assay type: cell-based; conditions: Homo sapiens, mean±SD
Experimental: as §1, §2

[8] = target: mTOR kinase (Homo sapiens, UniProt P42345); assay: mTOR kinase assay in vitro; assay type: biochemical
[9] = tested on: normal cell lines (HL7702, HUVEC, and MRC-5); assay: SRB cytotoxicity toward normal cell lines; assay type: cell-based; conditions: MRC-5, 72 h
Experimental: as §1
Figure S3. The effect of DHW-221 on normal cell lines. SRB assay was used to determine the cytotoxicity of DHW-221 toward normal cell lines (HL7702, HUVEC, and MRC-5) at 72 h. Mean ± SD; **p < 0.01, ***p < 0.001 vs. the control. One-way analysis of variance followed by Tukey’s post hoc multiple-comparisons test.

[10] = tested on: NSCLC cells; assay: Cell cycle analysis by flow cytometry; assay type: cell-based, human; conditions: 48 h, concentration-dependently
Excerpt: The PI3K/AKT/mTOR pathway is strongly linked to the regulation of cell cycle progression and apoptosis during cell proliferation.[6], [7] […] Meanwhile, the expression of endogenous cyclins in G0/G1 phase was detected by western blot, confirming that DHW‐221 regulated the cell cycle (Figure 3B). Apoptosis is crucial for anticancer drugs to kill cancer cells.[7] […] Finally, the proapoptotic effects of DHW‐221 were confirmed by western blot analysis of apoptosis‐related protein expression both in vitro and in vivo (Figure 3G–I).
FIGURE 3 DHW‐221 induces cell cycle arrest and cell apoptosis in NSCLC both in vitro and in vivo. (A) DHW‐221 and NVP‐BEZ235 were detected by flow cytometry for 48 h. The raw histogram is shown at the top and the quantification of specific cell cycle stages at the bottom. (B) Western blot analysis of the expression levels of cell cycle‐related proteins in HCC827 and NCI‐H1993 cells after 48 h of treatment with the specified concentrations of DHW‐221 and NVP‐BEZ235. (C) Hoechst 33342 staining results. Apoptotic cells are bright blue; scale bar, 50 µm. […] Green fluorescence indicates decreased mitochondrial membrane potential, red fluorescence indicates normal mitochondrial membrane potential; scale bar, 100 µm. […] (G–I) The expression levels of apoptosis‐related proteins in NSCLC cells (G, H) and tumor tissues (I) were detected by western blot. […]

[11] = Pharmacokinetics in mice; assay type: in vivo; conditions: mouse, plasma, 10 mg/kg; for MRT inf: read-out: MRTinf_obs
Experimental: ^a Values are the average of three runs. Vehicle: DMSO:ethanol:saline=3:100:897. ^b Dose:10 mg/kg. T1/2, half-life; Cmax, maximum concentration; Tmax, time of maximum concentration; AUCall, area under the plasma concentration time curve.

IC50 ([1]; 24h, n=3, read-out: IC50 NCI-H292 24h): 7320 ± 2420 nM
IC50 ([1]; 48h, n=3, read-out: IC50 NCI-H292 48h): 253 ± 149 nM
IC50 ([1]; 72h, n=3, read-out: IC50 NCI-H292 72h): 26 ± 3 nM
IC50 ([4]; 24h, n=3, read-out: IC50 A549 24h): 7140 ± 1240 nM
IC50 ([4]; 48h, n=3, read-out: IC50 A549 48h): 893 ± 288 nM
IC50 ([4]; 72h, n=3, read-out: IC50 A549 72h): 372 ± 86 nM
IC50 ([5]; 24h, n=3, read-out: IC50 NCI-H1993 24h): 3230 ± 1290 nM
IC50 ([5]; 48h, n=3, read-out: IC50 NCI-H1993 48h): 762 ± 83 nM
IC50 ([5]; 72h, n=3, read-out: IC50 NCI-H1993 72h): 117 ± 54 nM
alanine aminotransferase concentration ([6]; subcutaneous xenograft nude mice, high dose): increased at high dose
IC50 ([7]; 24h, n=3, read-out: IC50 HCC827 24h): 8330 ± 1450 nM
IC50 ([7]; 48h, n=3, read-out: IC50 HCC827 48h): 970 ± 127 nM
IC50 ([7]; 72h, n=3, read-out: IC50 HCC827 72h): 32 ± 18 nM
IC50 [8]: 3.9 nM
AUC ([11]; iv): 262 ± 75.7 µg·h/mL
Cmax ([11]; iv): 67400 ± 8540 ng/mL
Tmax ([11]; iv): 0.083 h
half-life ([11]; iv): 3.7 ± 0.2 h
MRT inf ([11]; iv): 4.7 ± 0.3 h
bioavailability ([11]; po vs iv, read-out: F (oral bioavailability)): 67.5%
AUC ([11]; po): 176 ± 51.1 µg·h/mL
Cmax ([11]; po): 11800 ± 3400 ng/mL
Tmax ([11]; po): 3 ± 1.7 h
half-life ([11]; po): 7.1 ± 0.9 h
MRT inf ([11]; po): 11.4 ± 0.3 h
SMILES: COc1ncc(-c2ccc3ncn(-c4ccc(OCCO)cc4)c3c2)cc1NS(=O)(=O)c1ccc(F)cc1F [DHW-221]
expression of Notch2 and Notch3 [2]: had no effect
p-mTOR expression compared with wortmannin [3]: significantly decreased
tumor growth ([6]; HCC827 subcutaneous and orthotopic xenografts, nude mice): apparently inhibited tumor growth
body weight ([6]; xenograft nude mice): without affecting body weight
effect on normal cells [9]: without affecting the normal cells
cell cycle arrest [10]: arrested at G0/G1 phase

SMILES: Cn1c(=O)n(-c2ccc(C(C)(C)C#N)cc2)c2c3cc(-c4cnc5ccccc5c4)ccc3ncc21 [NVP‐BEZ235, reference compound]
p-mTOR expression compared with wortmannin [3]: significantly decreased
